Test system: Enterobacter spp. isolates (n = 102)
Test: Broth microdilution MIC, clinical isolate panel
Type: cell-based, Enterobacter aerogenes and E. cloacae
Conditions: Enterobacter spp. (n = 102)
Description: Comparator antibiotics were supplied by Micromyx, and stock solutions were prepared on the first day of testing using solvents recommended by CLSI (1). Stock solutions of all compounds were made at 40× the final testing concentration and stored at −80° C. prior to testing. Information regarding compound source, catalog and lot number, testing concentrations and drug diluent for the comparators and test agent are detailed below in Table 3.
The test organisms evaluated in this study consisted of clinical isolates from the Micromyx Repository and reference isolates from the American Type Culture Collection (ATCC; Manassas, Va.). The clinical isolates were obtained from USA hospitals. Upon initial receipt at Micromyx, the organisms were sub-cultured onto an appropriate agar medium. Following incubation, colonies were harvested from these plates and cell suspensions prepared and frozen at −80° C. with a cryoprotectant. Prior to testing, the isolates were streaked from frozen vials onto Trypticase Soy Agar with 5% sheep blood (Becton Dickenson [BD]; Sparks, Md.; Lot Nos. 7173618, 7166759, 7208688, 72144895, 7228505 and Remel Lenexa, Kans. Lot No. 212574). Plates were incubated at 35° C. overnight.
Mueller Hinton II broth (MHB II; BD; Lot Nos. 6258541 and 7143896) was used for MIC testing of aerobic organisms.
MIC values were determined using a broth microdilution procedure described by CLSI (1, 3). Automated liquid handlers (Multidrop 384, Labsystems, Helsinki, Finland; Biomek 2000 and Biomek FX, Beckman Coulter, Fullerton Calif.) were used to conduct serial dilutions and liquid transfers.
To prepare the drug mother plates, which would provide the serial drug dilutions for the replicate daughter plates, the wells of columns 2-12 of standard 96-well microdilution plates (Costar 3795) were filled with 150 μl of the designated diluent for each row of drug. The test articles and comparator compounds (300 μl at 40× the highest concentration to be tested) were dispensed into the appropriate wells in column 1. The Biomek 2000 was then used to make 2-fold serial dilutions in the mother plates from column 1 through column 11. The wells of Column 12 contained no drug and served as the organism growth control wells for the assay.
The daughter plates were loaded with 185 μL per well of MHB II using the Multidrop 384. The daughter plates were completed on the Biomek FX instrument which transferred 5 µL of drug solution from each well of a mother plate to the corresponding well of each daughter plate in a single step. […]
Plates were stacked 3-4 high, covered with a lid on the top plate, placed in plastic bags, and incubated at 35° C. for 16 to 20 hrs. […] The MIC was read and recorded as the lowest concentration of drug that inhibited visible growth of the organism. […]

With C[C@H]1COc2c(N3CCN(C)CC3)c(F)cc3c(=O)c(C(=O)O)cn1c23 [Levofloxacin] as the molecule, how does the “% R (percent of isolates resistant, clinical breakpoints)” value read?
Its value is 4.9%.

From US20200071361A1, “ENGINEERED ANTIMICROBIAL AMPHIPHILIC PEPTIDES AND METHODS OF USE” (priority 2017, published 2020)
